The text below walks through data of patent US5606061A, “Thioformamide derivatives” (Eisai Co., Ltd., priority 1991, dated 1997).

What is called IC50 is the point on the concentration scale where inhibition reaches its midpoint.

Molecules are shown by their SMILES. Like-named read-outs stand apart in the source and are kept apart here.

Experiment [1] relates to rat aorta. Kind of experiment: Vasohypotonic activity on rat aorta specimen (inhibition of KCl-induced tension). It is filed as cell-based, rat (SD). The note with it: rat aorta spiral specimen, 20 mM KCl, 30° C., KCl tension = 100%. The protocol:
(1) Vasohypotonic activity on rat aorta specimen
The compounds of the present invention were examined for vasohypotonic activity by the use of the aorta extirpated from a rat.
A pectoral aorta was speedily extirpated from an SD male rat having a weight of 250 to 400 g and a spiral specimen was prepared from the aorta. This specimen was vertically suspended in the Organbath which was filled with the Krebs-Henseleit solution at 30° C. and through which a gas mixture comprising 95% of oxygen and 5% of carbon dioxide was passed. The change in the tension of the specimen was isotonically determined under a load of 1 g.
After the tension of the specimen has been stabilized, 20 mM of KCl was added to the bath. After the generated tension had been stabilized, a test compound was cumulatively added to the Organbath to determine the relaxation.
The extent of the relaxation, i.e., the inhibitory activity against the generation of tension was determined by taking the tension generated by the addition of KCl as 100% to calculate the IC50 value.

Experiment [2] deals with spontaneously hypertensive rats (SHR). Nature of the experiment: Hypotensive activity on spontaneously hypertensive rat in waking state. It is filed as in vivo. The note with it: oral, 2 hours after administration, before administration = 100, control 93.3 ± 4.0, read-out: Blood pressure. Here is the method:
(4) Hypotensive activity on spontaneously hypertensive rat in waking state
The compounds of the present invention were examined for hypotensive activity by orally administrating them to spontaneously hypertensive rats (SHR).
The systolic pressure of a spontaneously hypertensive male rat (weight: 260 to 360 g) which had been fasted for 12 hours was bloodlessly determined by the tail cuff method. Each drug was suspended in a 0.5% aqueous solution of methylcellulose and orally administered in a dose of 1 mg/kg. only the solvent was administered to control rats.
The blood pressures of the rats after 2 hours from the administration are given in the Table 1 with the blood pressures before the administration being taking as 100.

Experiment [3] concerns anesthetized thoracotomized dog. Nature of the experiment: Hypotensive activity and coronary bloodflow increasing activity on anesthetized thoracotomized dog. The note with it: Canis lupus familiaris, intravenous, 3 μg/kg. In kind it is in vivo, dog (crossbred). From the text: (3) Hypotensive activity and coronary bloodflow increasing activity on anesthetized thoracotomized dog
The compounds of the present invention were examined for hypotensive activity and coronary bloodflow increasing activity by the use of an anesthetized thoracotomized dog.
A crossbred adult dog was used. This dog was thoracotomized under inhalation anesthesia with an enflurane/laughing gas. The probe of an electromagnetic flowmeter was set on the ramus circumflexes of the left coronary artery to determine the coronary bloodflow. The arterial pressure was determined by making the tip of a catheter-tipped pressure transducer indwell in the arcus aortae.
Each test compound was intravenously administered in a dose of 3 μg/kg through a catheter inserted into the femoral vein.
The hypotensive activity and coronary bloodflow increasing activity of each test compound are given in Table 1 as the changes of the blood pressure and coronary bloodflow based on those before the administration of the compound.

Experiment [4] relates to right ventricular papillary muscle of guinea pig. Nature of the experiment: Activity on the action potential duration of the right ventricular papillary muscle of guinea pig (potassium channel activating effect). The settings on record: Cavia porcellus, 0.5 h, 1 Hz, 36 ±0.5° C., 30 minutes each concentration, read-out: Concn. at which APD90 is shortened to 50% of the initial one IC50 (converted). It is filed as cell-based, guinea pig (Hartley). From the text: (2) Activity on the action potential duration of the right ventricular papillary muscle of guinea pig
The compounds of the present invention were examined for the potassium channel activating effect by the use of the right ventricular papillary muscle of a guinea pig.
An action potential duration at 90% repolarization (hereinafter abbreviated to "APD90 ") reflects an outward potassium current. A compound having the potassium channel activating effect can activate the outward potassium channel to shorten the APD90 (see Proc. Natl. Acad. Sci., USA, 85, 8860 to 8864 (1988)).
A Hartley male guinea pig having a weight of 300 to 500 g was used. This guinea pig was killed by bleeding and the papillary muscle was extirpated from the right ventricle of the guinea pig and fixed in the Organbath. The surface of the papillary muscle was washed with Tyrode's solution at 36 ±0.5° C. through which an oxygen/carbon dioxide mixture was passed. The resulting specimen was stimulated by applying a rectangular wave pulse of 1 Hz to record the action potential by the glass microelectrode method.
After the action potential had been stabilized, the specimen was washed with Tyrode's solutions containing a test compound each for 30 minutes to determine the dose-response curve.

[5] abbreviates: change of blood pressure vs before administration, read-out: Change (%) hypotensive activity.
Where [6] appears, read: change of coronary bloodflow vs before administration, read-out: Change (%) coronary blood-flow increasing activity.

On to `CNC(=S)C1(c2ccc3nccn3c2)CCCCC1=O` (single isomer, unassigned; (-)) [Compound 1, (-)-1-(imidazo[1,2-a]pyridin-6-yl)-N-methyl-2-oxocyclohexanecarbothioamide], for which the figures for the IC50 in experiment [1] and in experiment [4] were 18.6 nM and 2630 nM, respectively. Further, the response vs control in vivo at 1 mg/kg in experiment [2] turned out to be 51.6 ± 5.1%. In addition, the change in vivo at 0.003 mg/kg in experiment [3] (setting [5]) was -22.1%; in experiment [3] (setting [6]), 78.6%.
For `CNC(=S)C1(c2ccc3nc(C)cn3c2)CCCCC1=O` (single isomer, unassigned; (-)) [Compound 3, (-)-N-methyl-1-(2-methylimidazo-[1,2-a]pyridin-6-yl)-2-oxocyclohexanecarbothioamide] the same measures were 6.17 nM, 759 nM, 45.9 ± 3.9%, -27% and 198%.
In experiment [1], `CNC(=S)C1(c2ccc3nccn3c2)CCCCC1OC(=O)c1ccccc1` (single isomer, unassigned; (-)) [Compound 4, (-)-2-benzoyloxy-1-(imidazo[1,2-a]pyridin-6-yl)-N-methylcyclohexanecarbothioamide] had an IC50 of 0.575 nM. Also, the change in vivo at 0.003 mg/kg was -26.6% in experiment [3] (setting [5]) and 312% in experiment [3] (setting [6]).
`CNC(=S)C1(c2ccc3nc(C(F)(F)F)cn3c2)CCCCC1=O` (single isomer, unassigned; (-)) [Compound 12, (-)-1-(2-trifluoromethylimidazo-[1,2-a]pyridin-6-yl)-N-methyl-2-oxocyclohexanecarbothioamide]: the IC50 in experiment [1] was 20 nM. Moreover, the change in vivo at 0.003 mg/kg in experiment [3] (setting [5]) is -16.5%; in experiment [3] (setting [6]), 86.5%.
For `CNC(=S)C1(c2ccc3nc(C)cn3c2)CCCC[S+]1[O-]` (single isomer, unassigned; (-)) [Compound 13, (-)-2-(2-methylimidazo-[1,2-a]pyridin-6-yl)-N-methyltetrahydrothiopyran-2-carbonthioamide 1-oxide] the same measures were 20 nM, -30% and 228%.
Take `CNC(=S)C1(c2ccc3nccn3c2)CCCCC1OCc1ccccc1` (stereo not drawn) [Compound 5, 2-benzyloxy-1-(imidazo[1,2-a]pyridin-6-yl)-N-methylcyclohexanecarbothioamide]: the IC50 was 0.355 nM in experiment [1] and 8.91 nM in experiment [4]. Further, the change in vivo at 0.003 mg/kg in experiment [3] (setting [5]) is -8.1%; in experiment [3] (setting [6]), 196%.
Consider `CNC(=S)C1(c2ccc3nccn3c2)CCCCC1=NOCc1ccccc1` (stereo not drawn) [Compound 6, anti-2-benzyloxyimino-1-(imidazo[1,2-a]pyridin-6-yl)-N-methylcyclohexanecarbothioamide], for which the IC50 was 1.91 nM in experiment [1] and 204 nM in experiment [4]. Also, the response vs control in vivo at 1 mg/kg in experiment [2] was determined as 59.3 ± 6.9%. The change in vivo at 0.003 mg/kg was -25.2% in experiment [3] (setting [5]) and 67.5% in experiment [3] (setting [6]).
Molecule `CNC(=S)C1(c2ccc3nccn3c2)CCCCC1NCc1ccccc1` (stereo not drawn) [Compound 7] showed an IC50 in experiment [1] of 1.78 nM. In experiment [2], the response vs control in vivo at 1 mg/kg worked out at 87.9 ± 0.1%. For the same molecule, the change in vivo at 0.003 mg/kg is -7.3% in experiment [3] (setting [5]) and 22.8% in experiment [3] (setting [6]).
As for `CNC(=S)C1(c2ccc3nccn3c2)CCCC[S+]1[O-]` (stereo not drawn) [Compound 8, 2-(imidazo[1,2-a]pyridin-6-yl)-N-methyltetrahydrothiopyran-2-carbothioamide1-oxide], half-maximal inhibition in experiment [1] (IC50) required 55 nM. For the same molecule, the response vs control in vivo at 1 mg/kg in experiment [2] is 62 ± 6.5%. The change in vivo at 0.003 mg/kg in experiment [3] (setting [5]) is -10.5%; in experiment [3] (setting [6]), 70.7%.
As to `CNC(=S)C1(n2cnc([N+](=O)[O-])c2)CCCCC1OC(=O)c1ccccc1` (stereo not drawn) [Compound 9, 2-benzoyloxy-N-methyl-1-(4-nitroimidazol-1yl)cyclohexanecarbothioamide], the IC50 is 11 nM in experiment [1] and 479 nM in experiment [4]. Also, the response vs control in vivo at 1 mg/kg in experiment [2] is 62.4 ± 3.7%. Besides, the change in vivo at 0.003 mg/kg in experiment [3] (setting [5]) is -14.9%; in experiment [3] (setting [6]) it was 131%.
For `CNC(=S)C1(n2cnc([N+](=O)[O-])c2)CCCCC1OCc1ccccc1` (stereo not drawn) [Compound 10, 2-benzyloxy-N-methyl-1-(4-nitroimidazol-1yl)cyclohexanecarbothioamide] the same measures were 0.49 nM, 51.3 nM, 58.8 ± 5.7%, -16.3% and 169%.
Regarding `CNC(=S)C1(n2cnc([N+](=O)[O-])c2)CCCCC1=NOCc1ccccc1` (stereo not drawn) [Compound 11, anti-2-benzyloxyimino-N-methyl-1-(4-nitroimidazol-1-yl)cyclohexanecarbothioamide], the figures for the IC50 in experiment [1] and in experiment [4] were 0.55 nM and 148 nM, respectively. In addition, in experiment [2], the response vs control in vivo at 1 mg/kg is 72.1 ± 4.5%. The change in vivo at 0.003 mg/kg in experiment [3] (setting [5]) was -28.5%; in experiment [3] (setting [6]), 152%.
